Data on 5 compounds can be found in ChEMBL document CHEMBL1121878, “Synthesis of seleno- and thioguanine-platinum(II) complexes and their antitumor activity in mice” (1981).

pIC50: −log10 of the molar value. A value given as a limit tells only on which side of the number the result lay.

For test [1], the system named is L1210. Put plainly: Median survival time at a compound dose of 25 mg/Kg, in mice bearing L1210 cells on days 1 and 5. It counts as functional, Mus musculus.
In test [2] the test system is L1210. Kind of test: Effect dose of 50 mg/kg on day 3, before L1210 cell transplantation in mice. The test is classed as functional, Mus musculus.
Test [3] concerns L1210. Kind of test: Median survival time at a compound dose of 200 mg/kg, in mice bearing L1210 cells on days 1 and 5; Toxic. It counts as functional, organism-based. On the set-up: dose 200 mg/kg. The settings on record: Mus musculus.
In test [4] the test system is L1210. Put plainly: Median survival time when no dose was administered in mice bearing L1210 cells on days 1 and 5. It counts as functional, Mus musculus.
Test [5] is described as follows: The number of mice survived to that of total at a dose of 25 mg/Kg on 30th day: 4/5. It counts as functional.
Test [6] in a line: The number of mice survived to that of total at a dose of 100 mg/kg on 30th day. It counts as functional.
Test [7] in a line: The number of mice survived to that of total at a dose of 50 mg/Kg on 30th day. The test is classed as functional.
Test [8] has as its system Mus musculus. Put plainly: Ratio of the median survival time (treated(T) versus control(C)) at a dose of 25 mg/Kg on days 1 and 5. The test is classed as functional.
Test [9] deals with L1210. Put plainly: Median survival time at a compound dose of 50 mg/kg, in mice bearing L1210 cells on days 1 and 5. The test is classed as functional, Mus musculus.
The nature of test [10]: The number of mice survived to that of total when no compound dose was given on 30th day. It counts as functional.
Test [11] concerns L1210. Put plainly: (§1) Median survival time at a compound dose of 100 mg/kg, in mice bearing L1210 cells on days 1 and 5. The test is classed as functional, Mus musculus.
Test [12] has as its system Mus musculus. Kind of test: (§2) Ratio of the median survival time (treated(T) versus control(C)) at a dose of 50 mg/kg, on days 1 and 5. It counts as functional.
The test system of test [13] is Mus musculus. Put plainly: (§3) Ratio of the median survival time (treated(T) versus control(C)) at a dose of 100 mg/kg, on days 1 and 5. It counts as functional.
Test [14] in a line: The number of mice survived to that of total at a dose of 100 mg/kg on 30th day; 0/5. The test is classed as functional, organism-based. Details: dose 100 mg/kg.
Test [15] is described as follows: The number of mice survived to that of total at a dose of 50 mg/kg on 30th day; 0/5. It counts as functional.
The subject of test [16] is L1210. Put plainly: Median survival time at a compound dose of 400 mg/kg, in mice bearing L1210 cells on days 1 and 5. It counts as functional, organism-based. Details: dose 400 mg/kg. The settings on record: Mus musculus.
Test [17] is described as follows: The number of mice survived to that of total at a dose of 400 mg/kg on 30th day; 0/5. It counts as functional, organism-based. Details: dose 400 mg/kg.
Test [18] has as its system L1210. The test is described as §1. It counts as functional. To be noted: Mus musculus.
The test system of test [19] is L1210. Kind of test: Ratio of the median survival time (treated(T) versus control(C)) at a dose of 800 mg/kg, on days 1 and 5. To be noted: Mus musculus. On the set-up: dose 800 mg/kg. The test is classed as functional, organism-based.
The nature of test [20]: The number of mice survived to that of total at a dose of 800 mg/kg on 30th day; 0/5. The test is classed as functional, organism-based. Details: dose 800 mg/kg.
The subject of test [21] is L1210. Kind of test: Ratio of the median survival time (treated(T) versus control(C)) at a dose of 400 mg/kg, on days 1 and 5. The test is classed as functional, organism-based. Details: dose 400 mg/kg. The settings on record: Mus musculus.
The subject of test [22] is L1210. Put plainly: Median survival time at a compound dose of 800 mg/kg (administered on days 1 & 5) in mice bearing L1210 cells. The test is classed as functional, organism-based. The settings on record: Mus musculus. Details: dose 800 mg/kg.
In test [23] the test system is L1210. Kind of test: Ratio of the median survival time (treated(T) versus control(C)) at a dose of 50x2 mg/kgxdays, on days 1 and 5. It counts as functional, organism-based. The settings on record: Mus musculus.
Test [24] concerns L1210. Kind of test: Ratio of the median survival time (treated(T) versus control(C)) at a dose of 100x2 mg/kgxdays, on days 1 and 5. The test is classed as functional, organism-based. The settings on record: Mus musculus.
The subject of test [25] is L1210. The test is described as §2. The test is classed as functional, Mus musculus.
Test [26] deals with L1210. Kind of test: Median survival time at a compound dose of 75 mg/kg, in mice bearing L1210 cells on days 1 and 5. It counts as functional, Mus musculus.
Test [27] in a line: The number of mice survived to that of total at a dose of 25 mg/kg on 30th day; 0/5. The test is classed as functional.
The test system of test [28] is L1210. Kind of test: Median survival time at a compound dose of 25 mg/kg, in mice bearing L1210 cells on days 1 and 5. It counts as functional, Mus musculus.
Test [29] can be described thus: The number of mice survived to that of total at a dose of 75 mg/kg on 30th day; 0/5. The test is classed as functional.
In test [30] the test system is L1210. Put plainly: Ratio of the median survival time (treated(T) versus control(C)) at a dose of 75 mg/kg on days 1 and 5. The test is classed as functional, Mus musculus.
Test [31] has as its system L1210. Kind of test: Ratio of the median survival time (treated(T) versus control(C)) at a dose of 25 mg/kg, on days 1 and 5. It counts as functional, Mus musculus.
The subject of test [32] is L1210. Described as §3. It counts as functional, Mus musculus.
Test [33] can be described thus: The number of mice survived to that of total at a dose of 50 mg/kg on 30th day; 1/5. The test is classed as functional.
Test [34] relates to L1210. Kind of test: In vitro inhibitory concentration required for 50% inhibition of L1210 cell growth. It counts as functional. The settings on record: Mus musculus, read-out: ID50 (the source's name).
Test [35] is described as follows: The number of mice survived to that of total at a dose of 100 mg/kg on 30th day; 3/5. It counts as functional.

As a reminder, the T/C is the ratio of treated to control. Regarding `Nc1nc2[nH]cnc2c(=S)[nH]1` [THIOGUANINE], the Median survival time in [1] is more than 30 days; in test [3], “Toxic”; in test [4], 10 days; in [9], 12 days; in test [11] it was 10 days. The T/C is 111% in test [2], more than 300% in test [8], 120% in test [12] and 100% in [13]. The Ratio in test [5] came to 4; in test [6], 0; in test [7], 0; in test [10], 0.

For “2-(2-Amino-6-selanyl-purin-9-yl)-5-hydroxymethyl-tetrahydro-furan-3,4-diol platinum complex”, the Ratio in [14], in test [15], in test [17], in test [20] and in test [10] was 0 each time. In addition, the Median survival time in test [16] worked out at 12 days; in test [4] (Mus musculus), 9 days; in test [18], 11 days; in test [9] (Mus musculus), 12 days; in test [22] it was 14 days. The T/C in test [19] is 156%; in test [21], 133%; in [23], 133%; in test [24], 111%.

With `Nc1nc([SeH])c2ncn(C3O[C@H](CO)[C@H](O)[C@@H]3O)c2n1` (stereo partly drawn), the T/C in test [25] is on record as 144.4%; in test [30], 144.4%; in test [31], 166.7%. The Ratio in test [15], in test [27] and in test [29] was 0 throughout. Also, the Median survival time in test [26] stood at 13 days; in test [4], 9 days; in [9] it was 13 days; in test [28] it was 15 days.

Regarding `Nc1nc([SeH])c2[nH]cnc2n1`, the figures for the T/C in test [2], in test [25] and in [32] were 100%, 200% and more than 300%, respectively. Moreover, the Median survival time was 9 days in test [4], 18 days in [9] and more than 30 days in test [11]. Moreover, the results for the Ratio in test [33], in test [10] and in [35] were 1, 0 and 3, respectively. In [34], the pIC50 is 8.38.

Regarding `O=c1[nH]c(=S)c2nc[nH]c2[nH]1`, in test [34], the pIC50 was 4.97.
